How the values were obtained:
Settings in all cases: 72 h
Calu-3 [1] = test: drug sensitivity score (DSS) for viability; higher = more toxic; extreme values may be limits of the assay
HepG2 [2] = test: as above
U2OS [3] = test: as above
Caco-2 [4] = test: as above
Vero E6 [5] = test: as above
Calu-3 [6] = test: relative viability EC50 (midpoint between 100% and the lowest measured viability); higher = less toxic
HepG2 [7] = test: as above
U2OS [8] = test: as above
Caco-2 [9] = test: as above
Vero E6 [10] = test: as above
Calu-3 [11] = test: cell viability relative to DMSO; higher = less toxic
HepG2 [12] = test: as above
U2OS [13] = test: as above
Caco-2 [14] = test: as above
Vero E6 [15] = test: as above

SMILES	drug sensitivity score (Calu-3 [1])	drug sensitivity score (HepG2 [2])	drug sensitivity score (U2OS [3])	drug sensitivity score (Caco-2 [4])	drug sensitivity score (Vero E6 [5])	relative viability EC50 (Calu-3 [6])	relative viability EC50 (HepG2 [7])	relative viability EC50 (U2OS [8])	relative viability EC50 (Caco-2 [9])	relative viability EC50 (Vero E6 [10])	cell viability (Calu-3 [11]; 1 nM)	cell viability (Calu-3 [11]; 10 nM)	cell viability (Calu-3 [11]; 100 nM)	cell viability (Calu-3 [11]; 1000 nM)	cell viability (Calu-3 [11]; 10000 nM)	cell viability (HepG2 [12]; 1 nM)	cell viability (HepG2 [12]; 10 nM)	cell viability (HepG2 [12]; 100 nM)	cell viability (HepG2 [12]; 1000 nM)	cell viability (HepG2 [12]; 10000 nM)	cell viability (U2OS [13]; 1 nM)	cell viability (U2OS [13]; 10 nM)	cell viability (U2OS [13]; 100 nM)	cell viability (U2OS [13]; 1000 nM)	cell viability (U2OS [13]; 10000 nM)	cell viability (Caco-2 [14]; 1 nM)	cell viability (Caco-2 [14]; 10 nM)	cell viability (Caco-2 [14]; 100 nM)	cell viability (Caco-2 [14]; 1000 nM)	cell viability (Caco-2 [14]; 10000 nM)	cell viability (Vero E6 [15]; 1 nM)	cell viability (Vero E6 [15]; 10 nM)	cell viability (Vero E6 [15]; 100 nM)	cell viability (Vero E6 [15]; 1000 nM)	cell viability (Vero E6 [15]; 10000 nM)
C=CCNC(=O)c1cc([N+](=O)[O-])cc2c(=O)[nH]c(Nc3ccc(Cl)c(Cl)c3)nc12	0	0	0	0	0	> 10 µM	> 10 µM	> 10 µM	> 10 µM	> 10 µM	104%	93.2%	103%	102%	94%	104%	90.5%	100%	91.9%	95.8%	97.7%	96.2%	102%	98%	92.1%	100%	95.5%	99.1%	96.5%	98.4%	92.4%	94.3%	92.9%	97.5%	97.7%
CC#CCOC(=O)c1c(C)nc2sc3c(c2c1N)CCC(O)C3 (stereo unspecified)	0	0	0	0	0	> 10 µM	> 10 µM	> 10 µM	> 10 µM	> 10 µM	113%	93.6%	102%	101%	97.4%	100%	94.8%	89.9%	106%	91.4%	100%	94.6%	103%	93.8%	95.9%	97.3%	91.4%	101%	92.3%	90.2%	91.6%	97%	88.6%	93.2%	98.9%
CC(C)Oc1cccc(CC(=O)N2CCC[C@](CC[N+]34CCC(c5ccccc5)(CC3)CC4)(c3ccc(Cl)c(Cl)c3)C2)c1	0	0	0	0	0	> 10 µM	> 10 µM	> 10 µM	> 10 µM	> 10 µM	87.6%	98.1%	91.1%	92.5%	99.1%	110%	84.1%	104%	91%	95.7%	96.8%	99.4%	96.8%	99.3%	98.8%	102%	99.7%	100%	97.9%	91.8%	101%	98.2%	100%	95.8%	97%
CCCN(CCC)C1Cc2cc(OC)c(OC)cc2C1	0	0	0	0	0	> 10 µM	> 10 µM	> 10 µM	> 10 µM	> 10 µM	96.9%	108%	92.3%	93.7%	108%	96.1%	106%	101%	99.8%	94.6%	102%	97.5%	100%	99.5%	104%	96.6%	99.6%	94.1%	98.3%	89.9%	103%	103%	103%	102%	99%
CCOc1cc(/C=C2/C(=O)N(c3ccccc3)N=C2C)cc(Cl)c1OCC(=O)OC	0	0	0	0	0	> 10 µM	> 10 µM	> 10 µM	> 10 µM	> 10 µM	92.9%	95.9%	105%	94.8%	108%	96.5%	101%	96.1%	98.3%	91.6%	102%	100%	98.2%	96.2%	99.4%	102%	108%	92.4%	92.9%	97.4%	104%	106%	103%	102%	97.7%
CCn1cnc2c(Nc3cccc(Cl)c3)nc(N[C@@H]3CCCC[C@@H]3N)nc21	4.4	5	6.2	4.4	5.6	3.25 µM	3.5 µM	2.8 µM	2.82 µM	2.94 µM	97.4%	90.9%	108%	101%	19.5%	91.4%	112%	103%	106%	1.1%	102%	94.4%	102%	95.3%	0.9%	91.9%	98.8%	103%	96.8%	27.8%	94.1%	98.9%	96.1%	97.2%	6.3%
N=C(N)c1ccc(N2CCN(C3CCN(CC(=O)O)CC3)CC2)cc1	0	0	0	0	0	> 10 µM	> 10 µM	> 10 µM	> 10 µM	> 10 µM	91.4%	96.4%	90%	92%	100%	111%	96.8%	101%	107%	102%	97.6%	103%	95.6%	96.9%	102%	83%	97.2%	89.2%	92.5%	104%	97.9%	98.6%	99.2%	93.5%	96.9%
CCCn1c(=O)c2nc(-c3ccccc3)[nH]c2n(CCC)c1=O [1,3-dipropyl-8-phenylxanthine]	0	2.7	0	0.4	0	> 10 µM	–	> 10 µM	> 10 µM	> 10 µM	102%	102%	101%	102%	89.4%	108%	99.8%	103%	90.3%	69.5%	98.1%	95.4%	90.1%	97.1%	90.5%	91.1%	96.4%	90.3%	102%	81.9%	96.6%	95.4%	94%	95.7%	94.9%
CN(C)c1nc(N)c(C(=O)Nc2cccnc2)nc1Cl [ACDPP]	0	4.5	0	0	0	> 10 µM	–	> 10 µM	> 10 µM	> 10 µM	100%	96.8%	104%	96.4%	94.6%	104%	105%	103%	80.9%	58.9%	93.6%	98%	97.7%	98.5%	105%	87.4%	98.7%	93%	89.2%	87.9%	102%	95.3%	98.3%	95.1%	99.9%
CN(C)C(=O)c1ccc(S(=O)(=O)c2ccc(NC(=O)[C@@](C)(O)C(F)(F)F)c(Cl)c2)cc1 [AZD7545]	0	2	0.1	1.2	0.2	> 10 µM	–	> 10 µM	> 10 µM	> 10 µM	99.6%	107%	85.2%	94%	102%	94.3%	99.1%	95%	99.1%	61%	94.5%	104%	91.9%	103%	84.9%	103%	96.3%	96.7%	96.1%	79.6%	101%	99%	99.7%	89%	90.9%
O=c1c2ccccc2[se]n1-c1ccccc1 [Ebselen]	1.7	0	1.1	0	0	> 10 µM	> 10 µM	–	> 10 µM	> 10 µM	104%	91.8%	107%	83.1%	87.7%	113%	98.2%	103%	100%	106%	103%	95.8%	105%	98.9%	74.5%	102%	89.2%	104%	91.6%	92.2%	97.6%	100%	105%	92.8%	93.7%
